From PubChem BioAssay (NCI) come the findings set out here.

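Step 1: Grow cells in 96-well plates. Step 2: Expose to compound for 48 hours at 5 concentrations. Step 3: Interpolate endpoints linearly; if unreached, use highest concentration. Abbreviation: GI50, concentration required for 50% inhibition of growth. TGI: total growth inhibition.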

Among the test systems are 786-0 renal; A549 NSCLC; COLO 205 colon; HS 578T breast; K-562 leukemia; NCI-H226 lung; ACHN renal; IGROV1 ovarian; RXF 393 renal; SK-MEL-5 melanoma.
Common to all, as to assay: NCI tumour cell line growth inhibition, 48 h

For `O=C(Nc1ccc(N2CCNCC2)cn1)c1[nH]ncc1Nc1ncnc2sc3c(c12)CCC3`, the GI50 in the assay on 786-0 renal is 1.41 µM; in the assay with A549 NSCLC, 1.67 µM; with COLO 205 colon it was 2110 nM; with HS 578T breast it was 3.38 µM; with K-562 leukemia, 207 nM; with NCI-H226 lung, 20 µM. Further, the TGI in the assay with 786-0 renal came to 2.98 µM; in the assay on A549 NSCLC, 3.5 µM; in the assay on COLO 205 colon, 6.97 µM; with HS 578T breast, 14.6 µM; in the assay on K-562 leukemia, 0.498 µM; in the assay on NCI-H226 lung, 67.2 µM.

Turning to `CCOC(=O)C1C(=O)c2cccc(OC)c2C2COC(=O)N12` (configuration not stated), the TGI in the assay with 786-0 renal, in the assay on A549 NSCLC, in the assay on ACHN renal, in the assay on COLO 205 colon, in the assay with IGROV1 ovarian and in the assay with K-562 leukemia was above 100 µM each time. For the same compound, the TGI in the assay with NCI-H226 lung, in the assay with RXF 393 renal and with SK-MEL-5 melanoma was above 100 µM throughout.

In the case of `CC(=O)N1CCN(C=S)CC1`, the TGI with 786-0 renal, in the assay on A549 NSCLC, in the assay with ACHN renal, in the assay on COLO 205 colon, in the assay with IGROV1 ovarian and with K-562 leukemia was above 100 µM in each case. Also, the TGI in the assay with NCI-H226 lung, with RXF 393 renal and in the assay on SK-MEL-5 melanoma was above 100 µM in each case.

In the case of `COc1c(OC2OC(CO)C(O)C(O)C2O)cc2c(c1OC)-c1ccc(OC)c(=O)cc1[C@@H](NC(C)=O)CC2` (some centres not stated), the TGI in the assay with 786-0 renal, with A549 NSCLC, in the assay on ACHN renal, in the assay on COLO 205 colon, in the assay on IGROV1 ovarian and in the assay on K-562 leukemia was above 100 µM in each case. The TGI with NCI-H226 lung is above 100 µM; in the assay with RXF 393 renal, above 90.4 µM; in the assay with SK-MEL-5 melanoma, above 94.5 µM.

With `C(=NCCN=Cc1cccc2ccccc12)c1cccc2ccccc12`, the TGI in the assay with 786-0 renal, with A549 NSCLC, with ACHN renal, in the assay on COLO 205 colon, in the assay on IGROV1 ovarian and in the assay on K-562 leukemia was above 100 µM each time. For the same compound, the TGI with NCI-H226 lung, in the assay on RXF 393 renal and with SK-MEL-5 melanoma was above 100 µM each time.

Turning to `N#CC12CC3(CCC1CCC1(C2)OCCO1)OCCO3` (configuration not stated), the TGI in the assay on 786-0 renal, with A549 NSCLC, in the assay with ACHN renal, with COLO 205 colon, in the assay with IGROV1 ovarian and with K-562 leukemia was above 100 µM throughout. For the same compound, the TGI in the assay with NCI-H226 lung, in the assay on RXF 393 renal and in the assay with SK-MEL-5 melanoma was above 100 µM throughout.

As to `CC(=O)c1cccc(NC(=O)/C(=N\NC(=S)NN)C2C(=O)Nc3ccccc3S2=O)c1` (configuration not stated), the TGI with 786-0 renal, with A549 NSCLC, with ACHN renal, with HS 578T breast, in the assay on IGROV1 ovarian and in the assay with K-562 leukemia was above 100 µM in each case. Besides, the TGI in the assay with NCI-H226 lung, with RXF 393 renal and in the assay on SK-MEL-5 melanoma was above 100 µM in each case.

As to `COc1ccc2c(c1)O/C(=C\c1ccc([N+](=O)[O-])s1)C2=O`, the GI50 in the assay on 786-0 renal was 11.4 µM; in the assay with A549 NSCLC, 3.46 µM; with ACHN renal, 1410 nM; in the assay with COLO 205 colon, 1880 nM; in the assay with HS 578T breast, 2.61 µM; with IGROV1 ovarian, 1.14 µM. For the same compound, the GI50 in the assay with K-562 leukemia is 285 nM; with NCI-H226 lung, above 31.3 µM; in the assay with RXF 393 renal, 1.85 µM. Further, the TGI in the assay on 786-0 renal is above 71.6 µM; with A549 NSCLC, above 100 µM; in the assay on ACHN renal it was above 100 µM; in the assay with COLO 205 colon, above 100 µM; with HS 578T breast, above 25.2 µM; in the assay with K-562 leukemia, 1.31 µM. Moreover, the TGI in the assay on NCI-H226 lung was above 100 µM; in the assay with RXF 393 renal, above 20.8 µM.

Take `CCc1cccc(CC)c1NC(=O)C1=CNC(C)=C(C(=O)Nc2c(CC)cccc2CC)C1c1ccc(O)c(OC)c1` (configuration not stated): the TGI in the assay with 786-0 renal is above 100 µM; in the assay with A549 NSCLC, above 100 µM; in the assay with ACHN renal it was above 100 µM; in the assay on COLO 205 colon, above 100 µM; with IGROV1 ovarian, above 100 µM; in the assay on K-562 leukemia it was 99.5 µM. The TGI is 89.7 µM in the assay with NCI-H226 lung, 93.9 µM in the assay on RXF 393 renal and above 100 µM in the assay with SK-MEL-5 melanoma.

As for `O=C(OCc1ccccc1)c1ccccc1-c1c2ccc(=O)cc-2oc2cc(OCc3ccccc3)ccc12`, the TGI in the assay on 786-0 renal is 71 µM; in the assay with A549 NSCLC, 82.2 µM; in the assay on ACHN renal it was above 100 µM; with COLO 205 colon, 42.8 µM; with IGROV1 ovarian, 44.3 µM; in the assay with K-562 leukemia, above 100 µM. In addition, the TGI in the assay on NCI-H226 lung came out at 32.2 µM; in the assay with RXF 393 renal it was 34 µM; in the assay on SK-MEL-5 melanoma it was 17.8 µM.

Regarding `N#CC(CC(=O)O)=C(c1ccccc1)c1ccccc1`, the TGI in the assay with 786-0 renal, with A549 NSCLC, with ACHN renal, in the assay with COLO 205 colon, in the assay on HS 578T breast and in the assay with IGROV1 ovarian was above 100 µM in each case. Further, the TGI in the assay with K-562 leukemia, in the assay on NCI-H226 lung and in the assay with SK-MEL-5 melanoma was above 100 µM in each case.

Consider `Nc1cc(N)c2nc(-c3ccccc3)c(Oc3ccc(Cl)c(Cl)c3)nc2c1`, for which the GI50 is 19.4 µM in the assay on 786-0 renal; 18.1 µM in the assay on A549 NSCLC; 20600 nM in the assay with COLO 205 colon; 10.6 µM in the assay on HS 578T breast; 11.4 µM in the assay on IGROV1 ovarian; 3550 nM with K-562 leukemia. For the same compound, the figures for the GI50 in the assay on NCI-H226 lung, with RXF 393 renal and in the assay with SK-MEL-5 melanoma were 15.1 µM, 25.2 µM and 9.77 µM, respectively. In addition, the TGI with 786-0 renal was 41.2 µM; in the assay on A549 NSCLC it was 43.5 µM; in the assay on COLO 205 colon it was 67.8 µM; in the assay with HS 578T breast, 33.7 µM; with IGROV1 ovarian, 32.2 µM; in the assay with K-562 leukemia, above 100 µM. For the same compound, the figures for the TGI with NCI-H226 lung, in the assay on RXF 393 renal and in the assay on SK-MEL-5 melanoma were 49.5 µM, 85.4 µM and 28.7 µM, respectively.

In the case of `CC(=O)CC(=O)ON(C)C(=O)Cc1ccccc1`, the TGI with 786-0 renal, in the assay with A549 NSCLC, with ACHN renal, with COLO 205 colon, in the assay on IGROV1 ovarian and in the assay with K-562 leukemia was above 100 µM throughout. For the same compound, the TGI with NCI-H226 lung, in the assay with RXF 393 renal and with SK-MEL-5 melanoma was above 100 µM each time.
